Data taken from patent US11254663B2 (BRISTOL-MYERS SQUIBB COMPANY, priority 2019, dated 2022).

Target: FXR (Homo sapiens (Human), UniProt Q96RI1)
Experiment: FXR EC50 (FXR agonist potency reported with each Example)
Type: cell-based

Sequence of FXR (Q96RI1 262-486): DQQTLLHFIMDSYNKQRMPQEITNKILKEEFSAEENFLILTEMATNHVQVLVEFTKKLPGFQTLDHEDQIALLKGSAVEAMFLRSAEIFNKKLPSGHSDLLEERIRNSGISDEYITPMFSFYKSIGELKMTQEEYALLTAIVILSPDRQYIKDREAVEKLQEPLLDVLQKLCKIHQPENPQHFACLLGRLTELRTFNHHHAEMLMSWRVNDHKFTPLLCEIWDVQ

`Cc1csc(-c2cccc(N(CC34CCC(c5nc(C6CC6)no5)(CC3)CC4)C(=O)C34CC(F)(C3)C4)c2)n1` [Example 151, N-((4-(3-cyclopropyl-1,2,4-oxadiazol-5-yl)bicyclo[2.2.2]octan-1-yl)methyl)-3-fluoro-N-(3-(4-methylthiazol-2-yl)phenyl)bicyclo[1.1.1]pentane-1-carboxamide] and `CCOc1cc(-c2cccc(N(CC34CCC(c5nc(C6CC6)no5)(CC3)CC4)C(=O)C34CC(F)(C3)C4)c2)no1` [Example 25, N-((4-(3-cyclopropyl-1,2,4-oxadiazol-5-yl)bicyclo[2.2.2]octan-1-yl)methyl)-N-(3-(5-ethoxyisoxazol-3-yl)phenyl)-3-fluorobicyclo[1.1.1]pentane-1-carboxamide] are within 1.5-fold of each other in EC50: 79 nM for the first, 87 nM for the second.

Compared with `Cn1nc(-c2cccc(N(CC34CCC(c5nc(C6CC6)no5)(CC3)CC4)C(=O)C3CC(C(F)F)C3)c2)cc1C1CC1` (stereo not shown) [Example 78, N-((4-(3-cyclopropyl-1,2,4-oxadiazol-5-yl)bicyclo[2.2.2]octan-1-yl)methyl)-N-(3-(5-cyclopropyl-1-methyl-1H-pyrazol-3-yl)phenyl)-3-(difluoromethyl)cyclobutane-1-carboxamide], `O=C(C1CC(C(F)F)C1)N(CC12CCC(c3nnc(C4CC4)o3)(CC1)CC2)c1cccc(-c2nc(C3CC3)no2)c1` (stereo not shown) [Example 139, N-(3-(3-cyclopropyl-1,2,4-oxadiazol-5-yl)phenyl)-N-((4-(5-cyclopropyl-1,3,4-oxadiazol-2-yl)bicyclo[2.2.2]octan-1-yl)methyl)-3-(difluoromethyl)cyclobutane-1-carboxamide] is 1.6-fold lower in EC50: 607 nM for the first, 384 nM for the second. The second is the more potent here.

First: Cn1cc(-c2cccc(N(CC34CCC(c5nc(C6CC6)no5)(CC3)CC4)C(=O)C3CC(F)(F)C3)c2)nc1C1CC1 [Example 131, N-((4-(3-cyclopropyl-1,2,4-oxadiazol-5-yl)bicyclo[2.2.2]octan-1-yl)methyl)-N-(3-(2-cyclopropyl-1-methyl-1H-imidazol-4-yl)phenyl)-3,3-difluorocyclobutane-1-carboxamide]
Second: O=C(C1CCC(F)(F)C1)N(CC12CCC(c3nc(C4CC4)no3)(CC1)CC2)c1cccc(-c2cc(C3CC3)on2)c1 (stereo not shown) [Example 59, N-((4-(3-cyclopropyl-1,2,4-oxadiazol-5-yl)bicyclo[2.2.2]octan-1-yl)methyl)-N-(3-(5-cyclopropylisoxazol-3-yl)phenyl)-3,3-difluorocyclopentane-1-carboxamide]
The EC50 of the first is 21-fold higher: 1440 nM for the first, 70 nM for the second. The second is the more potent here.

`Cn1nc(-c2cccc(N(CC34CCC(c5noc(C(C)(C)C)n5)(CC3)CC4)C(=O)C34CC(F)(C3)C4)c2)cc1C(C)(C)C` [Example 214, N-((4-(5-(tert-butyl)-1,2,4-oxadiazol-3-yl)bicyclo[2.2.2]octan-1-yl)methyl)-N-(3-(5-(tert-butyl)-1-methyl-1H-pyrazol-3-yl)phenyl)-3-fluorobicyclo[1.1.1]pentane-1-carboxamide] and `CC(C)c1nc(-c2cccc(N(CC34CCC(c5cc(C6CC6)n(C)n5)(CC3)CC4)C(=O)C34CC(F)(C3)C4)c2)no1` [Example 169, N-((4-(5-cyclopropyl-1-methyl-1H-pyrazol-3-yl)bicyclo[2.2.2]octan-1-yl)methyl)-3-fluoro-N-(3-(5-isopropyl-1,2,4-oxadiazol-3-yl)phenyl)bicyclo[1.1.1]pentane-1-carboxamide] are within 1.5-fold of each other in EC50: 89 nM for the first, 98 nM for the second.

First: O=C(N(CC12CCC(c3nc(CC4CC4)no3)(CC1)CC2)c1cccc(-c2nc(C3CC3)no2)c1)C12CC(F)(C1)C2 [Example 68, N-(3-(3-cyclopropyl-1,2,4-oxadiazol-5-yl)phenyl)-N-((4-(3-(cyclopropylmethyl)-1,2,4-oxadiazol-5-yl)bicyclo[2.2.2]octan-1-yl)methyl)-3-fluorobicyclo[1.1.1]pentane-1-carboxamide]
Second: O=C(C1CC(F)(F)C1)N(CC12CCC(c3nc(CC4CC4)no3)(CC1)CC2)c1cccc(-c2nc(C3CC3)no2)c1 [Example 70, N-(3-(3-cyclopropyl-1,2,4-oxadiazol-5-yl)phenyl)-N-((4-(3-(cyclopropylmethyl)-1,2,4-oxadiazol-5-yl)bicyclo[2.2.2]octan-1-yl)methyl)-3,3-difluorocyclobutane-1-carboxamide]
The EC50 of the first is 5.4-fold lower: 110 nM for the first, 598 nM for the second. The first is the more potent here.

Going from `CC(=O)NC1(c2nc(-c3cccc(N(CC45CCC(c6nc(C7CC7)no6)(CC4)CC5)C(=O)C45CC(F)(C4)C5)c3)no2)CC1` [Example 111, N-(3-(5-(1-acetamidocyclopropyl)-1,2,4-oxadiazol-3-yl)phenyl)-N-((4-(3-cyclopropyl-1,2,4-oxadiazol-5-yl)bicyclo[2.2.2]octan-1-yl)methyl)-3-fluorobicyclo[1.1.1]pentane-1-carboxamide] to `CC(F)(F)c1nc(-c2cccc(N(CC34CCC(c5nc(C6CC6)no5)(CC3)CC4)C(=O)C34CC(F)(C3)C4)c2)no1` [Example 112, N-((4-(3-cyclopropyl-1,2,4-oxadiazol-5-yl)bicyclo[2.2.2]octan-1-yl)methyl)-N-(3-(5-(1,1-difluoroethyl)-1,2,4-oxadiazol-3-yl)phenyl)-3-fluorobicyclo[1.1.1]pentane-1-carboxamide], the EC50 falls from 120 nM to 68 nM (1.8-fold). The second is the more potent here.

Compared with `O=C(N1CCCC1)N(CC12CCC(c3nc(C4CC4)no3)(CC1)CC2)c1cccc(-c2nc(C3CC3)no2)c1` [Example 91, N-((4-(3-cyclopropyl-1,2,4-oxadiazol-5-yl)bicyclo[2.2.2]octan-1-yl)methyl)-N-(3-(3-cyclopropyl-1,2,4-oxadiazol-5-yl)phenyl)pyrrolidine-1-carboxamide], `CN(C)[C@H]1CCN(C(=O)N(CC23CCC(c4nc(C5CC5)no4)(CC2)CC3)c2cccc(-c3nc(C4CC4)no3)c2)C1` [Example 93, (S)—N-((4-(3-cyclopropyl-1,2,4-oxadiazol-5-yl)bicyclo[2.2.2]octan-1-yl)methyl)-N-(3-(3-cyclopropyl-1,2,4-oxadiazol-5-yl)phenyl)-3-(dimethylamino)pyrrolidine-1-carboxamide] is 8.4-fold higher in EC50: 322 nM for the first, 2690 nM for the second.

`Cn1nc(C23CCC(CN(C(=O)C45CC(F)(C4)C5)c4cccc(-c5nc(C6CC6)no5)c4)(CC2)CC3)cc1C1CC1` [Example 124, N-(3-(3-cyclopropyl-1,2,4-oxadiazol-5-yl)phenyl)-N-((4-(5-cyclopropyl-1-methyl-1H-pyrazol-3-yl)bicyclo[2.2.2]octan-1-yl)methyl)-3-fluorobicyclo[1.1.1]pentane-1-carboxamide] and `CC(C)(O)c1coc(-c2cccc(N(CC34CCC(c5nc(C6CC6)no5)(CC3)CC4)C(=O)C34CC(F)(C3)C4)c2)n1` [Example 15, N-((4-(3-cyclopropyl-1,2,4-oxadiazol-5-yl)bicyclo[2.2.2]octan-1-yl)methyl)-3-fluoro-N-(3-(4-(2-hydroxypropan-2-yl)oxazol-2-yl)phenyl)bicyclo[1.1.1]pentane-1-carboxamide] are within 1.5-fold of each other in EC50: 89 nM for the first, 88 nM for the second.

First: CC(C)(C)c1noc(C23CCC(CN(C(=O)C45CC(F)(C4)C5)c4cccc(-c5noc(C6(C)CC6)n5)c4)(CC2)CC3)n1 [Example 176, N-((4-(3-(tert-butyl)-1,2,4-oxadiazol-5-yl)bicyclo[2.2.2]octan-1-yl)methyl)-3-fluoro-N-(3-(5-(1-methylcyclopropyl)-1,2,4-oxadiazol-3-yl)phenyl)bicyclo[1.1.1]pentane-1-carboxamide]
Second: O=C(N(CC12CCC(c3nc(C4CC4)no3)(CC1)CC2)c1cccc(-c2cnn(-c3cccnc3)c2)c1)C12CC(F)(C1)C2 [Example 152, N-((4-(3-cyclopropyl-1,2,4-oxadiazol-5-yl)bicyclo[2.2.2]octan-1-yl)methyl)-3-fluoro-N-(3-(1-(pyridin-3-yl)-1H-pyrazol-4-yl)phenyl)bicyclo[1.1.1]pentane-1-carboxamide]
The EC50 of the first is 6.8-fold lower: 24 nM for the first, 162 nM for the second. The first is the more potent here.

Compared with `N#CC1(c2ccc(C34CCC(CN(C(=O)C5CC(C(F)F)C5)c5cccc(-c6nc(C7CC7)no6)c5)(CC3)CO4)cc2)CC1` (stereo not shown) [Example 141, N-((1-(4-(1-Cyanocyclopropyl)phenyl)-2-oxabicyclo[2.2.2]octan-4-yl)methyl)-N-(3-(3-cyclopropyl-1,2,4-oxadiazol-5-yl)phenyl)-3-(difluoromethyl)cyclobutane-1-carboxamide], `Cc1cc(C23CCC(CN(C(=O)C4CCC(F)(F)C4)c4cccc(-c5nc(C6CC6)no5)c4)(CC2)CC3)ccn1` (stereo not shown) [Example 33, N-(3-(3-cyclopropyl-1,2,4-oxadiazol-5-yl)phenyl)-3,3-difluoro-N-((4-(2-methylpyridin-4-yl)bicyclo[2.2.2]octan-1-yl)methyl)cyclopentane-1-carboxamide] is 6.7-fold higher in EC50: 643 nM for the first, 4320 nM for the second.

`O=C(C1CC(F)(F)C1)N(CC12CCC(c3nnc(C4CC4)o3)(CC1)CC2)c1cccc(-c2nc(C3CC3)no2)c1` [Example 138, N-(3-(3-cyclopropyl-1,2,4-oxadiazol-5-yl)phenyl)-N-((4-(5-cyclopropyl-1,3,4-oxadiazol-2-yl)bicyclo[2.2.2]octan-1-yl)methyl)-3,3-difluorocyclobutane-1-carboxamide] and `O=C(C1CCC1)N(CC12CCC(c3nc(C4CC4)no3)(CC1)CC2)c1cccc(-c2cnc(C3CC3)o2)c1` [Example 20, N-((4-(3-cyclopropyl-1,2,4-oxadiazol-5-yl)bicyclo[2.2.2]octan-1-yl)methyl)-N-(3-(2-cyclopropyloxazol-5-yl)phenyl)cyclobutanecarboxamide] are within 1.5-fold of each other in EC50: 158 nM for the first, 138 nM for the second.

Compared with `O=C(C1CCC1)N(CC12CCC(c3nc(CC4CC4)no3)(CC1)CC2)c1cccc(-c2nc(CC3CC3)no2)c1` [Example 64, N-((4-(3-(cyclopropylmethyl)-1,2,4-oxadiazol-5-yl)bicyclo[2.2.2]octan-1-yl)methyl)-N-(3-(3-(cyclopropylmethyl)-1,2,4-oxadiazol-5-yl)phenyl)cyclobutanecarboxamide], `CCc1noc(-c2cccc(N(CC34CCC(c5nc(C6CC6)no5)(CC3)CC4)C(=O)[C@H]3C[C@](O)(C(F)(F)F)C3)c2)n1` [Example 5, (1s, 3s)-N-((4-(3-cyclopropyl-1,2,4-oxadiazol-5-yl)bicyclo[2.2.2]octan-1-yl)methyl)-N-(3-(3-ethyl-1,2,4-oxadiazol-5-yl)phenyl)-3-hydroxy-3-(trifluoromethyl)cyclobutane-1-carboxamide] is 2.9-fold lower in EC50: 524 nM for the first, 182 nM for the second.

`COc1cccc(-c2cccc(N(CC34CCC(c5nc(C)no5)(CC3)CC4)C(=O)C3CC(F)(F)C3)c2)c1` [Example 220, 3,3-Difluoro-N-(3′-methoxy-[1,1′-biphenyl]-3-yl)-N-((4-(3-methyl-1,2,4-oxadiazol-5-yl)bicyclo[2.2.2]octan-1-yl)methyl)cyclobutane-1-carboxamide] gave an EC50 of 547 nM.
